{
  "source": "patent US11439656B2",
  "about": "“Pharmaceutical compounds and uses thereof” (Regents of the University of Minnesota, priority 2018, dated 2022)",
  "key": {"eIF4E and eIF4G": {"biological_target": "T1, eIF4E and eIF4G (Homo sapiens, UniProt P06730)", "T1 construct": "endogenous in cells; host or cells: SH-SY5Y", "T1 sequence (P06730 2-217 limits assumed)": "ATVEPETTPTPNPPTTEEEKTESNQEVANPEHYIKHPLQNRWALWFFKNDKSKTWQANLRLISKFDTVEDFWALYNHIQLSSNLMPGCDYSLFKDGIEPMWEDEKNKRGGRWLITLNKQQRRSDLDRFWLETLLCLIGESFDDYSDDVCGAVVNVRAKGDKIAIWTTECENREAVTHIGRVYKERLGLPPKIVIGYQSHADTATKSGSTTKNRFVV", "assay": "m7-GTP Sepharose bead pull-down of eIF4E and eIF4G", "assay_type": "cell-based", "settings": "SH-SY5Y cells, 100 μM, 24 hours", "experimental": "SH-SY5Y cells were treated with 100 μM 4Ei-10 for 24 hours. After treatment, cells were lysed and equal amounts of proteins were incubated with m^7-GTP Sepharose beads. After incubation, beads were washed and mixed with SDS-PAGE loading buffer. The eluted proteins were then subjected to SDS-PAGE and transferred to a PVDF membrane. Bound eIF4G and eIF-4E were then detected with total eIF4E and total β-actin as input controls."}, "SH-SY5Y cells [1]": {"tested_on": "SH-SY5Y cells", "assay": "Indirect immunofluorescence of phosphorylated H2A.X foci (DNA double strand breaks)", "assay_type": "cell-based", "settings": "nucleus", "description": "Indirect immunofluorescence: Chamber slides (8 wells, Lab-Tek) were treated with Poly-L-Lysine (Sigma) prior to seeding with SH-SY5Y cells at 8000 cells/well. Sub-confluent cells were treated with different reagents. After treatment, cells were briefly fixed in 3% paraformaldehyde solution and were then permeablized with 0.2% Triton X-100 in Tris-buffered saline. After permeabilization, cells were incubated with a phosphor-Histone H2A.X antibody (Millipore) and then with a Texas-Red conjugated secondary antibody (Jackson Laboratories) followed by DAPI staining. Images were recorded using a Nikon Eclipse TE2000-E confocal microscope at 60× magnification.\nFoci formation of phosphorylated H2A.X, which recognizes DNA double strand breaks, was examined."}, "MCF-7 cells": {"tested_on": "MCF-7 cells", "assay": "Western blot of p53 and PARP cleavage in MCF-7 cells", "assay_type": "cell-based", "settings": "4Ei-10 alone", "experimental": "Sub-confluent MCF-7 cells were treated with either 100 μM 4Ei-10, 50 μM 4EGI-1, or both for 24 hours. After treatment, both floating and attached cells were collected and lysed. Equal amounts of protein were subjected to SDS-PAGE and transferred to a PVDF membrane. p53, PARP, cleaved PARP, and β-actin were detected with their respective antibodies."}, "IRES of p53 mRNA": {"tested_on": "IRES of p53 mRNA", "assay": "Dual luciferase assay of p53 IRES activity (pR5UTRF reporter)", "assay_type": "cell-based", "settings": "SH-SY5Y cells transfected with pR5UTRF, compared to untreated control cells", "experimental": "Dual luciferase assays: Cells were lysed with passive lysis buffer (Promega). The dual-luciferase reporter assay (Promega) was then performed according to the manufacturer's instructions. Firefly and Renilla luciferase activities were determined with a Synergy 2 (BioTek) microplate reader.\nTo determine if the IRES activity of p53 mRNA increases during 4Ei-10 treatment when cap-dependent protein translation is halted by 4Ei-10, a bicistronic dual-luciferase reporter vector pR5UTRF, which contains the IRES sequence (−131 nt before 1st AUG of p53 ORF, accession number, NM_00546.4) of the p53 mRNA, was used to transfect SH-SY5Y cells. The IRES activity of p53 mRNA was then measured as the ratio of firefly (Fluc, controlled by the IRES sequence of p53 mRNA) to Renilla luciferase (Rluc) activity, Rluc is controlled by eIF4E and cap-dependent protein translational machinery and was used as an internal control for Fluc."}, "[2]": {"tested_on": "cell lines of mantle cell lymphoma (MCL)", "settings": "cited from earlier work"}, "SH-SY5Y cells [3]": {"tested_on": "SH-SY5Y cells", "assay": "Flow cytometry assay of cell cycle distribution", "assay_type": "cell-based", "experimental": "Flow Cytometry Assay of Cell Cycle Distribution: Cells were seeded onto six well plates and were grown to sub-confluency. After treatment with or without 4Ei-10, cells were gently removed from the plates, washed once with cold PBS, and fixed with cold 70% ethanol. Cells were then stained with propidium iodide and subjected to flow cytometry (Becton Dickinson FACScalibur). The cell population at each phase was analyzed by the Modfit 2 software.\nSince the p53 tumor suppressor protein is known to induce cell cycle arrest through induction of p21Cip1, a cell cycle distribution analysis was performed after treating SH-SY5Y cells with 4Ei-10."}, "SH-SY5Y cells [4]": {"tested_on": "SH-SY5Y cells", "assay": "MTT cell viability assay", "assay_type": "cell-based", "settings": "different concentrations of 4Ei-10", "experimental": "MTT cell viability assay: Cells were plated on a 24-well plate at 20,000 cells/well. After treatment with different reagents, the ratio of viable cells in each well was determined using a CellTiter Cell Proliferation kit (Promega) following the manufacturer's instructions. MTS solution was placed in each well at a ratio of 20 μL/100 μL of cell culture medium and incubated in a cell culture incubator for 2-3 hours. Absorbance was then measured at the wavelength of 492 nm with a microplate reader.\n(§1) SH-SY5Y cells were treated with 4Ei-10. SH-SY5Y is a neuroblastorna cell line that contains wild-type p53. 4Ei-10 is a small molecule translation inhibitor. It is a prodrug that is converted to N7-chlorophenoxyethyl guanosine monophosphate by the enzyme hHINT1 in the cell as shown in FIG. 1A. N7-chlorophenoxyethyl guanosine monophosphate competes with the cap structure for binding to eIf-4E, preventing the recruitment of the 5′ mRNA cap structure to the eIF-4F complex. […] A time-course study was then performed by treating SH-SY5Y cells with 4Ei-10 at a concentration of 100 μM."}, "SH-SY5Y cells [5]": {"tested_on": "SH-SY5Y cells", "assay": "Western blot of PARP cleavage (apoptosis) in SH-SY5Y cells", "assay_type": "cell-based", "experimental": "(§2) Cell culture, cell extract preparation, SDS-PAGE, and western blot: SH-SY5Y pediatric neuroblastoma cells were purchased from ATCC. Pediatric glioblastoma multiforme cell line CHLA-200 was a generous gift from Dr. C. Patrick Reynolds (Texas Tech). Cancer cells were cultured in RPMI-1640 supplemented with 10% fetal bovine serum (FBS) and 1% Penicillin-Streptomycin. Cells were lysed with RIPA lysis buffer (Millipore) containing protease inhibitor cocktails (Roche). The protein concentration was measured by the Lowry method. Equal amounts of protein were subjected to SDS-PAGE and then transferred to a PVDF membrane. The proteins of interest were then probed with their respective antibodies.\nSince the p53 tumor suppressor protein is also a stimulator of cell apoptosis, the levels of PARP, a substrate of caspase 3, were examined in SH-SY5Y cells treated with 4Ei-10."}, "[6]": {"tested_on": "p53 tumor suppressor protein", "assay": "Western blot of p53 and p21Cip1 induction in SH-SY5Y cells", "assay_type": "cell-based, human", "experimental": "as §2, §1\nTo determine if the increase of the p53 tumor suppressor protein caused by 4Ei-10 is associated with enhanced p53 tumor suppressor protein synthesis, SH-SY5Y cells were treated with 4Ei-10 or 4Ei-10 plus cycloheximide, a protein synthesis (elongation) inhibitor."}, "CHLA-200 cells": {"tested_on": "CHLA-200 cells", "assay": "Western blot of p53, p21Cip1 and PARP cleavage in CHLA-200 cells", "assay_type": "cell-based", "experimental": "as §2\nThe ability of 4Ei-10 to induce the p53 tumor suppressor protein in other type of cell lines was also examined. CHLA-200 is a children's glioblastoma multiforme cell line with wild-type p53. CHLA-200 cells were treated with 100 μM 4Ei-10."}, "SH-SY5Y cells [7]": {"tested_on": "SH-SY5Y cells", "assay": "Cell Death ELISA analysis", "assay_type": "cell-based", "settings": "data not shown"}},
  "data": [
    {"smiles": "CSCCOP(=O)(NCCc1c[nH]c2ccccc12)OC[C@H]1O[C@@H](n2c[n+](CCOc3ccc(Cl)cc3)c3c(=O)[nH]c(N)nc32)C(O)C1O", "note": "(stereo partly drawn) [4Ei-10]", "values": [
      {"measurement": "eIF4E bound to the m7-GTP Sepharose beads", "setting": "eIF4E and eIF4G", "value": "decreased"},
      {"measurement": "eIF4G bound to the m7-GTP Sepharose beads", "setting": "eIF4E and eIF4G", "value": "decreased"},
      {"measurement": "foci formation of phosphorylated H2A.X (DNA double strand breaks)", "setting": "SH-SY5Y cells [1]", "value": "not seen"},
      {"measurement": "cell apoptosis", "setting": "MCF-7 cells", "value": "increased cell apoptosis"},
      {"measurement": "induction of the p53 tumor suppressor protein", "setting": "MCF-7 cells", "value": "Induction of the p53 tumor suppressor protein was observed"},
      {"measurement": "IRES activity of p53 mRNA (ratio of Fluc/Rluc)", "setting": "IRES of p53 mRNA", "value": "significantly increased"},
      {"measurement": "c-Myc expression", "setting": "[2]", "value": "suppression of c-Myc expression"},
      {"measurement": "expression of p27", "setting": "[2]", "value": "induce the expression of p27"},
      {"measurement": "cell proliferation and cell survival", "setting": "[2]; multiple cell lines of mantle cell lymphoma", "value": "inhibits cell proliferation and cell survival"},
      {"measurement": "chemosensitization", "setting": "[2]; to doxorubicin, dexamethasone, and ibrutinib", "value": "enhanced chemosensitization"},
      {"measurement": "cell numbers at the G1 phase", "setting": "SH-SY5Y cells [3]", "value": "substantial increase"},
      {"measurement": "cell numbers at the S phase", "setting": "SH-SY5Y cells [3]", "value": "dramatic decrease"},
      {"measurement": "G1S ratio, an indicator of G1 cell cycle arrest", "setting": "SH-SY5Y cells [3]; compared to control cells", "value": "two-fold increase"},
      {"measurement": "cell viability or cell proliferation", "setting": "SH-SY5Y cells [4]", "value": "decrease in cell viability or cell proliferation in a concentration-dependent manner"},
      {"measurement": "cleaved PARP (cellular apoptosis)", "setting": "SH-SY5Y cells [5]; 100 μM", "value": "increase of cleaved PARP"},
      {"measurement": "strength of apoptosis induced", "setting": "SH-SY5Y cells [5]; 100 μM", "value": "relatively weak"},
      {"measurement": "treatment time after which apoptosis could be seen", "setting": "SH-SY5Y cells [5]; 100 μM, prolonged treatment", "value": "≥ 24", "unit": "h"},
      {"measurement": "expression of p53 downstream target p21Cip1", "setting": "[6]; 100 μM, time-course", "value": "increased expression"},
      {"measurement": "p53 tumor suppressor protein accumulation", "setting": "[6]; 100 μM, time-course", "value": "induced p53 tumor suppressor protein accumulation"},
      {"measurement": "p53 tumor suppressor protein accumulation with or without cycloheximide", "setting": "[6]; protein synthesis inhibitor experiment", "value": "induction of the p53 tumor suppressor protein"},
      {"measurement": "cell apoptosis", "setting": "CHLA-200 cells; CHLA200 cells", "value": "increased cell apoptosis"},
      {"measurement": "induction of the p53 tumor suppressor protein", "setting": "CHLA-200 cells; CHLA200 cells", "value": "Induction of the p53 tumor suppressor protein was observed"},
      {"measurement": "PARP cleavage (apoptosis)", "setting": "CHLA-200 cells; CHLA-200 cells, 100 μM", "value": "induced"},
      {"measurement": "p21Cip1 induction (cell cycle arrest)", "setting": "CHLA-200 cells; CHLA-200 cells, 100 μM", "value": "induced"},
      {"measurement": "cell death or apoptosis", "setting": "SH-SY5Y cells [7]", "value": "enhanced cell death or apoptosis"}
    ]},
    {"smiles": "O=C(O)C(Cc1ccccc1[N+](=O)[O-])=NNc1nc(-c2ccc(Cl)c(Cl)c2)cs1", "note": "(mixture of isomers) [4EGI-1, reference compound]", "values": [
      {"measurement": "induction of cellular apoptosis, comparison of single agents and combination", "setting": "SH-SY5Y cells [5]", "value": "stronger ability"},
      {"measurement": "induction of the p53 tumor suppressor protein, comparison of single agents and combination", "setting": "[6]", "value": "stronger ability"}
    ]}
  ]
}
